# Source: patent US11306121B2, “Composition for muscle relaxation” (CAREGEN CO., LTD., priority 2018, dated 2022)
# Like-named read-outs stand apart in the source and are kept apart here. Residues, ends and D or L forms follow the SMILES beside them.
# What was measured:
# [1] = 1,000 ppm in sterile distilled water, stored at 45° C., maximum observation time of 75 days
# [2] = 1,000 ppm in sterile distilled water, warmed at 121° C., maximum warming time of 30 minutes
smiles,measurement,setting,value
"CC[C@H](C)[C@H](NC(=O)[C@H](CC(C)C)NC(=O)[C@H](Cc1ccccc1)NC(=O)[C@@H](N)CCCCN)C(=O)N[C@@H](CCCCN)C(=O)O [peptide of the present invention, KFLIK] (H-KFLIK-OH; N-terminus and C-terminus assumed)",stability of the peptide (HPLC assay),[1],maintained
same,stability of the peptide (HPLC assay),[2],maintained
